Assay results as given in US10725042B2, “Methods of diagnosing and treating cancer” (Case Western Reserve University, priority 2012, dated 2020).

Key:
[1] = system: DLD1 UDG+/+ cells; test: Colony survival (clonogenic) assay, UDG+/+ cells; type: cell-based; details: Homo sapiens, DLD-1, interpolated from dose-response survival curves, read-out: IC50 value for pemetrexed
[2] = system: H460 cells; test: Clonogenic survival assay, H460 cells; type: cell-based; details: Homo sapiens, NCI-H460, read-out: IC50 values for pemetrexed
Method: (§1) Tumor cells (500-2000/dish) were plated and treated with pemetrexed (0-400 nM), 5-fluorouracil (0-20 μM), temozolomide (0-1500 μM), or cisplatin (0-40 μM). After 7 days, surviving colonies were stained with methylene blue for 30 min at room temperature and the colonies containing more than 50 cells were counted to generate survival curves.

[3] = system: A549 cells; test: Clonogenic survival assay, A549 cells (Example 1); type: cell-based; details: Homo sapiens, read-out: IC50 values for pemetrexed
Method: as §1

[4] = system: DLD1/UDG−/− cells; test: Cell cycle analysis, UDG−/− cells; type: cell-based, human; details: pemetrexed 25 nM
Method: For cell cycle analysis, 10^6 cells (DLD1/UDG^+/+ and DLD1/UDG^−/−) were plated in 100-mm tissue culture dishes and exposed to pemetrexed (25 nM). After 6, 24 and 72 h of culture, cells were fixed with 80% methanol and washed with ice-cold 1% BSA/PBS. DNA was stained with 20 μg/mL propidium iodide (Sigma-Aldrich) and 2.5 μg/mL of DNase-free RNase A (Roche). The DNA fluorescence of propidium iodide-stained cells was measured with an Elite ESP flow cytometer/cell sorter (Coulter, Miami, Fla.).

[5] = system: UDG+/+ cells; test: Replication foci stained with CldU and IdU, UDG+/+ cells; type: cell-based, human; details: pemetrexed 25 nM, n=10 cells
Method: DNA replication sites were visualized by incorporation of chlorodeoxyuridine (CldU) and iododeoxyuridine (IdU) into DNA. UDG^−/− and UDG^+/+ cells were labeled with 100 μM CldU (ICN, Irvine, Calif.) or IdU (Sigma Chemical Co., St. Louis, Mo.) for 45 min at different time intervals. Cells were washed with PBS, fixed with cold 70% ethanol, and stored at 4° C. For antibody staining, the ethanol was removed, and 100% methanol was added for 5 min. Cells were washed twice with PBS and incubated with 1.5 M HCl for 30 min to denature the DNA. Cells were washed with PBS, permeabilized with 0.5% Tween 20 in PBS for 5 min, and then incubated in 5% BSA (Sigma Chemical Co.) and in PBS for 20 min to reduce nonspecific binding. Primary antibodies CldU (rat anti-BrdU; Accurate Chemical and Science Co., Westbury, N.Y.) and IdU (mouse anti-BrdU; BD Biosciences) were diluted in 1% BSA buffer, added to the slides, and incubated in a humid environment for 2 hrs. Slides were washed with PBS-Tween 20 and then in a high-salt buffer (200 mM NaCl, 0.2% Tween 20, and 0.2% NP-40 in PBS) for 15 min. The samples were incubated with secondary antibodies for 1 h. Finally, slides were washed with PBSTween 20, mounted with Vectashield antifade mounting medium (Vector Laboratories, Inc., Burlingame, Calif.), and stored at 4° C. […] Fluorescence density of CldU or IdU was quantified by NIH image J software.

[6] = system: H460 xenografts; test: H460 xenograft tumors in nude mice; type: in vivo; details: pemetrexed 150 mg/kg, MX 4 mg/kg, i.p. daily for 5 days
Method: H460 or A549 tumor cells (5×10^6) were injected into bilateral flanks of female athymic NCr (nu/nu) mice (6 weeks old). When the tumor volumes reached 100-150 mm3, mice were divided into control and treatment groups (6-9 mice/group). Nude mice carrying tumors were treated with pemetrexed (150 mg/kg) alone, MX (4 mg/kg) alone or the combination of the two agents, by daily intraperitonial injection (i.p.) for 5 consecutive days. Tumor measurements were taken every 2 days. Tumor responses were quantified by tumor volume.

[7] = system: H1975 wt tumors; test: H1975 wt xenografts in NOD-SCID mice; type: in vivo
Method: Tumor cells in early passage (5×10^6) were injected into bilateral flanks of female NODSCID mice (6 weeks old). When tumor volumes reached 100 mm3, mice were divided into control (n=4) and treatment (n=6) groups. Mice bearing tumors were treated with pemetrexed (150 mg/kg) or 100 μl sterile PBS (control) by daily intraperitoneal injection (IP) for 5 consecutive days. Tumor measurements were taken every 2 days and response was quantified by tumor volume.

[8] = system: H1975 shUNG cells; test: PCNA dissociation by bi-parametric flow cytometry, H1975 shUNG cells; type: cell-based, human; details: 25 nM pemetrexed
Method: (§2) Propidium iodine (PI) staining of methanol fixed cells was for cell cycle determinations. Where indicated, FITC labeled PCNA antibody (PCNA-FITC, Abcam) was added for PCNA detection. Uni-parameter (PI-only) and dual-parameter (PI+PCNA-FITC) analysis was performed on a Coulter flow cytometer (EPICS-XL-MCL). Cell cycle histograms (PI) and PCNA dot plots (PCNA-FITC) were de-convoluted from ≥20,000 events using FlowJo software.
(§3) Prolonged S-phase arrest is known to result in DNA DSB formation due to the collapse of stalled replication forks. We evaluated the stability of the DNA replication fork in pemetrexed treated lung cancer cells with native and reduced levels of UNG protein. Nucleotide incorporation experiments using CldU and IdU indicate decreased postpemetrexed treatment nucleotide incorporation (data not shown). […] Using bi-parametric flow cytometry we measured the dissociation of the replication fork processivity factor, PCNA at the single cell level in H1975 cells expressing UNG directed shRNA. Similar assays have been utilized to detect replication fork disassembly following etoposide and hydroxyurea exposure. PCNA dissociation was determined by the percentage of cells in S phase having low PCNA (red box, FIG. 11d). […] As a complimentary experiment, we examined the expression of chromatin-bound PCNA after pemetrexed treatment by western blot of chromatin cellular extracts.

[9] = system: H1975 wild type cells; test: PCNA dissociation by bi-parametric flow cytometry, H1975 wild type cells; type: cell-based, human; details: treated samples
Method: as §2, §3

Nc1nc2[nH]cc(CCc3ccc(C(=O)N[C@@H](CCC(=O)O)C(=O)O)cc3)c2c(=O)[nH]1 [pemetrexed]
IC50 [1]: 210 nM | IC50 [2]: 110 nM | IC50 [3]: 1200 nM | cells arrested in S-phase ([4]; 6 hr): ~25% | cells arrested in S-phase ([4]; 24 hr): 36% | cells in S-phase ([4]; 72 hr): 35% | cells undergone apoptosis (subG1) ([4]; 72 hr): ~22% | ratio of IdU to CldU (fluorescence density) ([5]; 6-hr sample): 0.7±0.13 | ratio of IdU to CldU (fluorescence density) ([5]; 18-hr sample): 0.9±0.31 | antitumour activity ([6]; H460 tumours): moderately sensitive | mean tumour volume ([6]; H460 xenografts at 15 days, PBS control 2100±106): 1726±176 mm3 | tumors smaller than untreated controls ([7]; H1975 wild type tumors, day 20, pemetrexed 150 mg/kg IP x5): 37.8% | tumor quadrupling time ([7]; H1975 wt tumors, pemetrexed 150 mg/kg IP, 5 daily injections): 9.68 ± 0.31 days | cells in S phase having low PCNA ([8]; 6 hours): 3.88±0.93% | cells in S phase having low PCNA ([8]; 24 hours): 7.81±1.19% | cells in S phase having low PCNA [9]: less than 1%
